Measured values as given in publication PMC3980023 (Cancer discovery, 2014).

Target: T1, IKKε (Homo sapiens, UniProt Q14164)
T1 sequence (Q14164 1-716): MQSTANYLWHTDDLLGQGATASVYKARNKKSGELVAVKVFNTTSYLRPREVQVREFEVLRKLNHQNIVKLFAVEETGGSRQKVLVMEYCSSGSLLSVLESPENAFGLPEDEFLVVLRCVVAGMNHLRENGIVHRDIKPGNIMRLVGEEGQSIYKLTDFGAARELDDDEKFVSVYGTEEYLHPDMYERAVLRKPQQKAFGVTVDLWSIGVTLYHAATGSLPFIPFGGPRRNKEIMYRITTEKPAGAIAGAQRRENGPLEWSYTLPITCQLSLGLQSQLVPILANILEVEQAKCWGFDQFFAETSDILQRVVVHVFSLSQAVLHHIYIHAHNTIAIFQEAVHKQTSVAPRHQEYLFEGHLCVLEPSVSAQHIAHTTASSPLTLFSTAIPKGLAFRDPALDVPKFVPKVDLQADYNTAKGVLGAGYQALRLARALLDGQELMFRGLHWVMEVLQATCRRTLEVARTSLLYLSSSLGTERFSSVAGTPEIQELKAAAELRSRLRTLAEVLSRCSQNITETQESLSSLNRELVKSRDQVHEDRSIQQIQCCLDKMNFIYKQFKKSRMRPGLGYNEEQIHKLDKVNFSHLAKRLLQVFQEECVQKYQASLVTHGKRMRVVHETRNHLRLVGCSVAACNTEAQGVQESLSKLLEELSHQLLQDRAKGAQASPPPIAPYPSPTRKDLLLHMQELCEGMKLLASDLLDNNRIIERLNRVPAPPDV
Format: biochemical

IC50: 42 nM
SMILES: N#CCNC(=O)c1ccc(-c2ccnc(Nc3ccc(N4CCOCC4)cc3)n2)cc1 [CYT387]
